Columns and labels:
[1] = molecular target: Fibroblast growth factor receptor 2 (Homo sapiens, UniProt P21802); test: Inhibition of FGFR2 (unknown origin)
[2] = molecular target: Fibroblast growth factor receptor 4 (Homo sapiens, UniProt P22455); test: Inhibition of FGFR4 (unknown origin) incubated for 60 mins by caliper microfluidic mobility shift technology based assay
[3] = molecular target: Ephrin type-A receptor 1 (Homo sapiens, UniProt P21709); test: Inhibition of EphA1 (unknown origin)
[4] = AUC in Sprague-Dawley rat at 5 mg/kg, ig measured after 5 mins to 24 hrs by LC-MS analysis; assay type: ADME, organism-based; set-up: dose 5 mg/kg, time 0.083-24 hr, route […]; conditions: in vivo, po
[5] = Toxicity in male BALB/c mouse assessed as effect on body weight at 50 to 450 mg/kg/day, ig dosed once daily for 4 weeks followed by rehabilitation for another 28 days; assay type: organism-based; conditions: in vivo, po, 672 h
[6] = test system: Hep 3B2; test: Antitumor activity against human Hep3B cells xenografted in nude BALB/c mouse assessed as inhibition of tumor growth at 10 mg/kg bid for 14 days and measured twice per week relative to untreated control; assay type: functional; conditions: 336 h, read-out: TGI
[7] = Toxicity in female BALB/c mouse assessed as effect on body weight at 50 to 450 mg/kg/day, ig dosed once daily for 4 weeks followed by rehabilitation for another 28 days; assay type: organism-based; conditions: in vivo, po, 672 h
[8] = molecular target: Receptor tyrosine-protein kinase erbB-2 (Homo sapiens, UniProt P04626); test: Inhibition of HER2 (unknown origin)
[9] = molecular target: MAP kinase-activated protein kinase 3 (Homo sapiens, UniProt Q16644); test: Inhibition of MAPKAPK3 (unknown origin)
[10] = molecular target: Epidermal growth factor receptor (Homo sapiens, UniProt P00533); test: Inhibition of EGFR (unknown origin)
[11] = molecular target: Mast/stem cell growth factor receptor Kit (Homo sapiens, UniProt P10721); test: Inhibition of C-KIT (unknown origin)
[12] = Toxicity in female BALB/c mouse at 200 to 2000 mg/kg, ig administered as single dose measured after 14 days; assay type: organism-based; conditions: in vivo, po
[13] = test system: Hep 3B2; test: Antitumor activity against human Hep3B cells xenografted in nude BALB/c mouse assessed as inhibition of tumor growth at 3 mg/kg bid for 14 days and measured twice per week relative to untreated control; assay type: functional; conditions: 336 h, read-out: TGI
[14] = molecular target: ALK tyrosine kinase receptor (Homo sapiens, UniProt Q9UM73); test: Inhibition of ALK (unknown origin)
[15] = Toxicity in male BALB/c mouse assessed as induction of animal death at 450 mg/kg/day, ig dosed once daily for 4 weeks followed by rehabilitation for another 28 days; assay type: organism-based; conditions: in vivo, po, 672 h
[16] = molecular target: Tyrosine-protein kinase SYK (Homo sapiens, UniProt P43405); test: Inhibition of SYK (unknown origin)
[17] = molecular target: Angiopoietin-1 receptor (Homo sapiens, UniProt Q02763); test: Inhibition of TIE2 (unknown origin)
[18] = molecular target: Vascular endothelial growth factor receptor 3 (Homo sapiens, UniProt P35916); test: Inhibition of FLT4 (unknown origin)
[19] = molecular target: Insulin receptor (Homo sapiens, UniProt P06213); test: Inhibition of INSR (unknown origin)
[20] = molecular target: Ephrin type-B receptor 1 (Homo sapiens, UniProt P54762); test: Inhibition of EphB1 (unknown origin)
[21] = molecular target: High affinity nerve growth factor receptor (Homo sapiens, UniProt P04629); test: Inhibition of TRKA (unknown origin)
[22] = test system: Huh-7; test: Antitumor activity against human HuH7 cells xenografted in nude BALB/c mouse assessed as inhibition of tumor growth at 10 mg/kg bid for 14 days and measured twice per week relative to untreated control; assay type: functional; conditions: Huh-7, 336 h, read-out: TGI
[23] = Toxicity in male BALB/c mouse at 200 to 2000 mg/kg, ig administered as single dose measured after 14 days; assay type: organism-based; conditions: in vivo, po
[24] = Toxicity in male BALB/c mouse assessed as effect on clinical pathology parameters at 200 to 2000 mg/kg, ig administered as single dose measured after 14 days; assay type: organism-based; conditions: in vivo, po, 336 h
[25] = Toxicity in female BALB/c mouse assessed as induction of animal death at 450 mg/kg/day, ig dosed once daily for 4 weeks followed by rehabilitation for another 28 days; assay type: organism-based; conditions: in vivo, po, 672 h
[26] = molecular target: Leukocyte tyrosine kinase receptor (Homo sapiens, UniProt P29376); test: Inhibition of LTK (unknown origin)
[27] = molecular target: Tyrosine-protein kinase JAK1 (Homo sapiens, UniProt P23458); test: Inhibition of JAK1 (unknown origin)
[28] = molecular target: Macrophage-stimulating protein receptor (Homo sapiens, UniProt Q04912); test: Inhibition of RON (unknown origin)
[29] = molecular target: MAP kinase-activated protein kinase 2 (Homo sapiens, UniProt P49137); test: Inhibition of MAPKAPK2 (unknown origin)
[30] = test system: Huh-7; test: Antitumor activity against human HuH7 cells xenografted in nude BALB/c mouse assessed as inhibition of tumor growth at 30 mg/kg bid for 14 days and measured twice per week relative to untreated control; assay type: functional; conditions: Huh-7, 336 h, read-out: TGI
[31] = Toxicity in female BALB/c mouse assessed as effect on clinical pathology parameters at 200 to 2000 mg/kg, ig administered as single dose measured after 14 days; assay type: organism-based; conditions: in vivo, po, 336 h
[32] = molecular target: T1, Fibroblast growth factor receptor 1 (Homo sapiens, UniProt P11362); test: Inhibition of FGFR1 (unknown origin) incubated for 60 mins by caliper microfluidic mobility shift technology based assay
[33] = molecular target: Vascular endothelial growth factor receptor 2 (Homo sapiens, UniProt P35968); test: Inhibition of KDR (unknown origin)
[34] = test system: Hep 3B2; test: Antitumor activity against human Hep3B cells xenografted in nude BALB/c mouse assessed as inhibition of tumor growth at 30 mg/kg bid for 14 days and measured twice per week relative to untreated control; assay type: functional; conditions: 336 h, read-out: TGI
[35] = molecular target: Platelet-derived growth factor receptor beta (Homo sapiens, UniProt P09619); test: Inhibition of PDGFRbeta (unknown origin)
[36] = molecular target: Non-receptor tyrosine-protein kinase TYK2 (Homo sapiens, UniProt P29597); test: Inhibition of TYK2 (unknown origin)
[37] = molecular target: T1, Fibroblast growth factor receptor 1; test: Inhibition of FGFR1 (unknown origin)
[38] = molecular target: Fibroblast growth factor receptor 3 (Homo sapiens, UniProt P22607); test: Inhibition of FGFR3 (unknown origin)
[39] = molecular target: Muscle, skeletal receptor tyrosine-protein kinase (Homo sapiens, UniProt O15146); test: Inhibition of MUSK (unknown origin)
[40] = molecular target: Tyrosine-protein kinase JAK3 (Homo sapiens, UniProt P52333); test: Inhibition of JAK3 (unknown origin)
[41] = molecular target: Receptor tyrosine-protein kinase erbB-4 (Homo sapiens, UniProt Q15303); test: Inhibition of HER4 (unknown origin)
[42] = test system: SK-HEP1; test: Antiproliferative activity against human SKHEP1 cells without FGFR4 gene amplification assessed as inhibition of cell proliferation incubated for 72 hrs by CellTiter-Glo method; assay type: functional, cell-based; conditions: SK-HEP1, 72 h
[43] = test system: Huh-7; test: Antitumor activity against human HuH7 cells xenografted in nude BALB/c mouse assessed as inhibition of tumor growth at 100 mg/kg bid for 14 days and measured twice per week relative to untreated control; assay type: functional; conditions: Huh-7, 336 h, read-out: TGI

T1 sequence (P11362 whole entry): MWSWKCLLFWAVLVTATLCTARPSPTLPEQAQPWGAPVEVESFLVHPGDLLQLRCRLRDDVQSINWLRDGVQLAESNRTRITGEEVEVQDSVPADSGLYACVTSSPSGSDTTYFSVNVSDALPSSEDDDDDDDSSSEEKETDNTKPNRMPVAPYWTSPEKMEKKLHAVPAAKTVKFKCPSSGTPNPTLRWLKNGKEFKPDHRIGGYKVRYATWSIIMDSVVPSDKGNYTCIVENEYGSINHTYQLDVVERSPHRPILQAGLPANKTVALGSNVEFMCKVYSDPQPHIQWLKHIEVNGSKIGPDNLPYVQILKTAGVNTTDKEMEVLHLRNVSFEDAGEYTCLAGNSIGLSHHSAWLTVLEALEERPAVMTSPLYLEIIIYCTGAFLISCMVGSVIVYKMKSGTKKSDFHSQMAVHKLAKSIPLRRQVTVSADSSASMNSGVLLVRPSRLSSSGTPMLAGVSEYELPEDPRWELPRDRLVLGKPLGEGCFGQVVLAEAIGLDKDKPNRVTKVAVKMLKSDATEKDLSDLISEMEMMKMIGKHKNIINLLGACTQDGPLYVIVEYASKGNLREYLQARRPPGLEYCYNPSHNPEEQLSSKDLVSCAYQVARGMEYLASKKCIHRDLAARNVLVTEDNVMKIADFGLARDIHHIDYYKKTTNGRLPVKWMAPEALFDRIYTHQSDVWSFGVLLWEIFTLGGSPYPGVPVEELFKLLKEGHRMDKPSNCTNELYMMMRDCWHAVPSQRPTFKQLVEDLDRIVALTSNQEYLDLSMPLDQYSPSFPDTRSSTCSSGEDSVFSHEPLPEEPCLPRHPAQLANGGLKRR
Chain of High affinity nerve growth factor receptor (P04629 whole entry): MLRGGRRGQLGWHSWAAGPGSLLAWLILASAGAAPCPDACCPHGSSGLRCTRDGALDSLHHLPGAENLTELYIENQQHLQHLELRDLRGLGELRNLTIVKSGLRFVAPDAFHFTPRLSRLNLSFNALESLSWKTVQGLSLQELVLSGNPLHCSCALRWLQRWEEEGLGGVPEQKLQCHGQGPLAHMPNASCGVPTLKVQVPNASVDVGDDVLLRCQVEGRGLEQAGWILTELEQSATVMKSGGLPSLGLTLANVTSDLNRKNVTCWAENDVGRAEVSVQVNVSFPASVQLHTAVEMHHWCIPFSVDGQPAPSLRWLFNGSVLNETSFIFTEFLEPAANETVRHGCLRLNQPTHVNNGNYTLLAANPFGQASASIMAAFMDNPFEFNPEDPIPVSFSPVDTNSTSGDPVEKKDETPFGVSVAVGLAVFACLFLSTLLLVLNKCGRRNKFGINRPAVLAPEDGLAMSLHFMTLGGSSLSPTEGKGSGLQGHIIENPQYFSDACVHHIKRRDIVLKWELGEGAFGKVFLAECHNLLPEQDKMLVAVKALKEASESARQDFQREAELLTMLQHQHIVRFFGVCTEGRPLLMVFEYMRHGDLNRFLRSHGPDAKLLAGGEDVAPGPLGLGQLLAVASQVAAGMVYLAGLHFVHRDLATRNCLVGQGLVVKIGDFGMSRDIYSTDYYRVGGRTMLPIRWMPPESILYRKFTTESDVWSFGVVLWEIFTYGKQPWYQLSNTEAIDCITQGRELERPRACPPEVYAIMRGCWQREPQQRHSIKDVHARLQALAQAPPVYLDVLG
Chain of MAP kinase-activated protein kinase 2 (P49137 whole entry): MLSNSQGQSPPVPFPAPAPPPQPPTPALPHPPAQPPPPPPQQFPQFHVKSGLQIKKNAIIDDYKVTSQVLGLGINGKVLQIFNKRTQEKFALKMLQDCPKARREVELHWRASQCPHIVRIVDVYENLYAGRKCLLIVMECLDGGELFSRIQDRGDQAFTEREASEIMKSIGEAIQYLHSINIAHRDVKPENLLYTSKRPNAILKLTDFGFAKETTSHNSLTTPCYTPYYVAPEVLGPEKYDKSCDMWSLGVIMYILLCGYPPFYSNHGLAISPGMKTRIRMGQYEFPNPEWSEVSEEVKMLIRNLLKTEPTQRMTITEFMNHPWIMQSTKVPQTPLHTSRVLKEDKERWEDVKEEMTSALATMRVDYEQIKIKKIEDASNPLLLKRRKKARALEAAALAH
Chain of Leukocyte tyrosine kinase receptor (P29376 whole entry): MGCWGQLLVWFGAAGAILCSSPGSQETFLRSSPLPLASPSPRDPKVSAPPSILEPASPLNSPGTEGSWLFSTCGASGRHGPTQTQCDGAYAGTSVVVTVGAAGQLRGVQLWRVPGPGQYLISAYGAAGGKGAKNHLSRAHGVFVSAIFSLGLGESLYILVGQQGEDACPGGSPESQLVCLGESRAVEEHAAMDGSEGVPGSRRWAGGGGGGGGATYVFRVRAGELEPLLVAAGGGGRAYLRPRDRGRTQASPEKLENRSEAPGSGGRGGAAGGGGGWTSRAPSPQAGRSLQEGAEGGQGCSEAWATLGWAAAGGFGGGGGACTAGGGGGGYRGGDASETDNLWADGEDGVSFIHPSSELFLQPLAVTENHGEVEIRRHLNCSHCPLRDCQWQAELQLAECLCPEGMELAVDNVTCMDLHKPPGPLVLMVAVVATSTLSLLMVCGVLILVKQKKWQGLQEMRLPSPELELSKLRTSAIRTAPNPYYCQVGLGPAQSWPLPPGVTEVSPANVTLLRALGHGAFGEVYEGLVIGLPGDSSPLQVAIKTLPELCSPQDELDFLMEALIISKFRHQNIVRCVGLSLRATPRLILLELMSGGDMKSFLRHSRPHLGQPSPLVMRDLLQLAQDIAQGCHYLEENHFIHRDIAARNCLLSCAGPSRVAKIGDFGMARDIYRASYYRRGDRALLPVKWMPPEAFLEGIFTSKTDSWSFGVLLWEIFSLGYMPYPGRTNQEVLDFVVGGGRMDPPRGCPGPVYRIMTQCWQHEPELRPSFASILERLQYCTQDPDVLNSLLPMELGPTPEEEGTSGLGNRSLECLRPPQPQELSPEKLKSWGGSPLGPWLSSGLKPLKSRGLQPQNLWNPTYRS
Chain of Muscle, skeletal receptor tyrosine-protein kinase (O15146 whole entry): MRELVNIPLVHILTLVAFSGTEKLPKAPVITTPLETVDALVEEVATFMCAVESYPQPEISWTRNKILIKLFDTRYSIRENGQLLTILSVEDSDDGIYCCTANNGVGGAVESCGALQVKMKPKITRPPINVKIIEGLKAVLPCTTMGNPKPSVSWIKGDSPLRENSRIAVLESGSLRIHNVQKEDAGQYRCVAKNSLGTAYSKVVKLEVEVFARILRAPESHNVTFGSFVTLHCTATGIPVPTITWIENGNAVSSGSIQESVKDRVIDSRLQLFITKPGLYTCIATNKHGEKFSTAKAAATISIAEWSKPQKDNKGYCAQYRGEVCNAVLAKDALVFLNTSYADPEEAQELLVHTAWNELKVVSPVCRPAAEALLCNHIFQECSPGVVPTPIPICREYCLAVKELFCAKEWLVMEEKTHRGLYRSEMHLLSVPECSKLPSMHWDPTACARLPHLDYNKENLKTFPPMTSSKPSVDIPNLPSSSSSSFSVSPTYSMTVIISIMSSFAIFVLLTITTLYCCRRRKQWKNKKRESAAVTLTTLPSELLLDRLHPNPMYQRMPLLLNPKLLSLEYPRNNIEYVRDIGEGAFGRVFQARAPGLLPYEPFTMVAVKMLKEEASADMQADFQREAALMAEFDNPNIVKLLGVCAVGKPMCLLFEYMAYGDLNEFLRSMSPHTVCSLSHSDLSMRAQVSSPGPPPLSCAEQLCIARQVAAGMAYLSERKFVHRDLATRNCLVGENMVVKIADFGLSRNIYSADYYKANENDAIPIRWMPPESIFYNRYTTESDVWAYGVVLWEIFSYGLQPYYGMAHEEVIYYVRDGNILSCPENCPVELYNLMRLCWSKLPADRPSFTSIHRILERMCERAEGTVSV
Chain of Epidermal growth factor receptor (P00533 whole entry): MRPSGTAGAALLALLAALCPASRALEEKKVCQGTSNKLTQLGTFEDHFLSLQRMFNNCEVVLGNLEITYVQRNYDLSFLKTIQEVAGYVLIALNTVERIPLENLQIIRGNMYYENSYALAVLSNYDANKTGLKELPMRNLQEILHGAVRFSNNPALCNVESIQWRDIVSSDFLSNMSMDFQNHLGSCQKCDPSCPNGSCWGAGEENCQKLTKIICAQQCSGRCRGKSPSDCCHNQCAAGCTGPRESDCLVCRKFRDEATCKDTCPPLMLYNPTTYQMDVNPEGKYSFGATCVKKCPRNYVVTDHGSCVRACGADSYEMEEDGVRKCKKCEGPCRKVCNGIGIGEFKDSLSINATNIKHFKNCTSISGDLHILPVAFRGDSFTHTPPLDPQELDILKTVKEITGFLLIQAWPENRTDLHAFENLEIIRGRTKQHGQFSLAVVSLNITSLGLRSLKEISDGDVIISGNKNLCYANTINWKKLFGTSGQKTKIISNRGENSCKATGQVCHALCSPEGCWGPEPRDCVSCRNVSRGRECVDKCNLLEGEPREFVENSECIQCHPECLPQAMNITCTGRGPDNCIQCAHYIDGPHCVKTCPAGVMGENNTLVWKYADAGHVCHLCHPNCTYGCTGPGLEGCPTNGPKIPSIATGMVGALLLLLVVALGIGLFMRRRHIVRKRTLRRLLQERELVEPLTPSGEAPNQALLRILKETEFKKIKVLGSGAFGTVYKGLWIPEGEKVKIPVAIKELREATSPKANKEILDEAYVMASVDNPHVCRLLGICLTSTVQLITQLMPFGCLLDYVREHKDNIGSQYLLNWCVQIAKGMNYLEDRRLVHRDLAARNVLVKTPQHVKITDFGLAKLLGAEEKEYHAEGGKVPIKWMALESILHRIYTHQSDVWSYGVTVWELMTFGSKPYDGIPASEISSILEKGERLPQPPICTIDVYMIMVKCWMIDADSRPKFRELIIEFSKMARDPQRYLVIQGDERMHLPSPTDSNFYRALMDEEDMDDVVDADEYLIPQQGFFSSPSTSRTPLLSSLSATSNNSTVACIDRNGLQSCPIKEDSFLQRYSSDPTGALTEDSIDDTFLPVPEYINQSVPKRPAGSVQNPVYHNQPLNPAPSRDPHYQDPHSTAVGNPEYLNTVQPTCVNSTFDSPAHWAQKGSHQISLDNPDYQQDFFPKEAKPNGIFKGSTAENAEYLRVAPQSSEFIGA

Compound: COC[C@@H](C)Nc1cc(NC(=O)N2CCCc3cc(CN4CCCCOC4=O)c(C=O)nc32)ncc1C#N
- IC50 [1]: > 10 µM
- IC50 [2]: 0.0015 µM
- IC50 [3]: > 10 µM
- AUC [4]: 9.46 µg·h/mL
- Activity [5]: Non-Toxic
- inhibition in vivo at 10 mg/kg [6]: 126%
- Activity [7]: Non-Toxic
- IC50 [8]: > 10 µM
- IC50 [9]: > 10 µM
- IC50 [10]: > 10 µM
- IC50 [11]: > 10 µM
- NOAEL at 336 h [12]: 2000 mg/kg/day
- inhibition in vivo at 3 mg/kg [13]: 69.8%
- IC50 [14]: > 10 µM
- Activity [15]: Non-Toxic
- IC50 [16]: > 10 µM
- IC50 [17]: > 10 µM
- IC50 [18]: > 10 µM
- IC50 [19]: > 10 µM
- IC50 [20]: > 10 µM
- IC50 [21]: > 10 µM
- inhibition in vivo at 10 mg/kg [22]: 28.1%
- NOAEL at 336 h [23]: 2000 mg/kg/day
- Activity [24]: Non-Toxic
- Activity [25]: Toxic
- IC50 [26]: > 10 µM
- IC50 [27]: > 10 µM
- IC50 [28]: > 10 µM
- IC50 [29]: > 10 µM
- inhibition in vivo at 30 mg/kg [30]: 62.7%
- Activity [31]: Non-Toxic
- IC50 [32]: > 10 µM
- IC50 [33]: > 10 µM
- inhibition in vivo at 30 mg/kg [34]: 165%
- IC50 [35]: > 10 µM
- IC50 [36]: > 10 µM
- IC50 [37]: > 10 µM
- IC50 [38]: > 10 µM
- IC50 [39]: > 10 µM
- IC50 [40]: > 10 µM
- IC50 [41]: > 10 µM
- IC50 [42]: > 10 µM
- inhibition in vivo at 100 mg/kg [43]: 70.8%

Reference: ChEMBL document CHEMBL4339212, “Novel 7-formyl-naphthyridyl-ureas derivatives as potential selective FGFR4 inhibitors: Design, synthesis, and biological activity studies” (Bioorg Med Chem, 2019)
